Test results: paper PMC5779714, “Metallochaperone UreG serves as a new target for design of urease inhibitor: A novel strategy for development of antimicrobials” (PLoS Biology, 2018)
Values joined by “and” are separate entries in the source; they are usually repeats but may differ in a detail not shown here. Equal values may be shown once. Read-outs that look alike come from different tables or passages of the source.

Legend:
UreG = UreG (Helicobacter pylori, UniProt Q09066); assay: Fluorescence-quenching titration of UreG (Kd); type: binding, H. pylori
Experimental: Using the relation between the emission intensity at 310 nm and molecule-UreG–bound species, as well as one site-binding model, the Kd values were calculated by a logistic regression model referring to a previous report. […] All fluorescence readings were corrected for the dilution effect.

H. pylori urease [1] = details: for Normalized urease activity(%): 40 min
Text: The starting sample with 20% urease activity was used. […] Because zero is not defined on a log scale, the blank values have been entered as 0.1.

urease [2] = test system: urease
[3] = test system: AGS cells with H. pylori infection; assay: AGS cells with H. pylori infection, inhibitors administrated to the AGS cells (S20 Fig); type: cell-based, human; details: 10 μM administrated to AGS cells with H. pylori infection
Text: As expected, low viability of AGS with the supplement of cmpd4 and cmpd8 was observed due to the toxicity of small compounds to mammalian cells. […] (PNG) Click here for additional data file.

urease [4] = test system: urease; remark: listed apart in the source
urease [5] = target: T1, urease (Proteus mirabilis, UniProt P17086+P17087+P17088); type: biochemical
T1 construct: endogenous in cells

urease [6] = test system: urease; remark: listed apart in the source
urease [7] = target: T2, urease (Pseudomonas aeruginosa, UniProt Q9HUU5+Q9HUU6+Q9HUU8); assay: Urease activity of extracted P. aeruginosa urease (in vitro); type: biochemical
T2 construct: endogenous in cells

[8] = test system: AGS cells exposed to H. pylori; assay: Cell infection model: AGS cells exposed to H. pylori pre-cultured with inhibitors; type: cell-based, human; details: H. pylori pre-cultured with 10 μM inhibitor 24 h; MOI 20; 24 h infection; Hp alone 28.8%
H. pylori urease [9] = target: H. pylori urease (Helicobacter pylori, UniProt P14916+P69996); type: biochemical; design: endogenous in cells; host or cells: H. pylori strain 26695 or a clinical isolate
urease [10] = test system: urease; remark: listed apart in the source

T2 sequence (Q9HUU6 whole entry): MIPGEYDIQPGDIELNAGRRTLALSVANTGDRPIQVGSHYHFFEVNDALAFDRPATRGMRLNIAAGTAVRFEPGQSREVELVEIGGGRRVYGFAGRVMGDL
T2 sequence (Q9HUU5 whole entry): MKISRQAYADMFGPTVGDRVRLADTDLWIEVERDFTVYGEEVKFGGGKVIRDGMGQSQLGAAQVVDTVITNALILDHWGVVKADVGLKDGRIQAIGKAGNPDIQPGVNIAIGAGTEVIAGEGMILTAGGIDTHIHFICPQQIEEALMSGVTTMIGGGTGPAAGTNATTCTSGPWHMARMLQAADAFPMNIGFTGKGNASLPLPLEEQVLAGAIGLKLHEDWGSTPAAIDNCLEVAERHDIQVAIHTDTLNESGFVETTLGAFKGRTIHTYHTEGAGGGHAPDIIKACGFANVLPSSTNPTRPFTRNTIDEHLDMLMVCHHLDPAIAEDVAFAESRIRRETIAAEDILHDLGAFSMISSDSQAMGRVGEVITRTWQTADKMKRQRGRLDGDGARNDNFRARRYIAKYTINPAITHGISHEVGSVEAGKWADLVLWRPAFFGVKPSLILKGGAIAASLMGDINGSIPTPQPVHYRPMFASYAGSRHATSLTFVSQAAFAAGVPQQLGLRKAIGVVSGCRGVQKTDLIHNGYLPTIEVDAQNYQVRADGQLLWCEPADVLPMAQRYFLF
T2 sequence (Q9HUU8 whole entry): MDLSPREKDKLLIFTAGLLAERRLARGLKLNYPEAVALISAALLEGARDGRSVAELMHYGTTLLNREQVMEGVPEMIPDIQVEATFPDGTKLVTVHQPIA
Sequence of H. pylori urease (Helicobacter pylori, UniProt P14916+P69996) (P69996 whole entry): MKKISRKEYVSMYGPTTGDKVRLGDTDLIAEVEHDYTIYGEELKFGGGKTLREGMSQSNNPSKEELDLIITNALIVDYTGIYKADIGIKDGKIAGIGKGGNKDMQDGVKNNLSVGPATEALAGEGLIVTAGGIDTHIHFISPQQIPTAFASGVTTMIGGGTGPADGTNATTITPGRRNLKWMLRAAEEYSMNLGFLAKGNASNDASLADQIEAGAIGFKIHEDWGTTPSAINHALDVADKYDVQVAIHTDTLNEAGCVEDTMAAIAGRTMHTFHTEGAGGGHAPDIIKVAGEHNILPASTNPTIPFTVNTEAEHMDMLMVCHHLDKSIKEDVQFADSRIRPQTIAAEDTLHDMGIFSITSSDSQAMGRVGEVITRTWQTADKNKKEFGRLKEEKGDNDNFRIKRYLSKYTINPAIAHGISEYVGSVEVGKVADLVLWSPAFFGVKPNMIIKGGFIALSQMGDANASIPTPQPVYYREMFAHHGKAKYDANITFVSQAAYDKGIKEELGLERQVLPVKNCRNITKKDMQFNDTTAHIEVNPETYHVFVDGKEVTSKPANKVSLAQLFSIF
Sequence of H. pylori urease (Helicobacter pylori, UniProt P14916+P69996) (P14916 whole entry): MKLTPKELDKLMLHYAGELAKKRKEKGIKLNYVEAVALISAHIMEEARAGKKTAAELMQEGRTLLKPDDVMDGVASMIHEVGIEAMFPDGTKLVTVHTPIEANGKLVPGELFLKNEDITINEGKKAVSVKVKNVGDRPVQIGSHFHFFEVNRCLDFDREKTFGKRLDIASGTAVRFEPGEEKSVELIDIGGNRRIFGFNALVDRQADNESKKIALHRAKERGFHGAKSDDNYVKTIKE
T1 sequence (P17087 whole entry): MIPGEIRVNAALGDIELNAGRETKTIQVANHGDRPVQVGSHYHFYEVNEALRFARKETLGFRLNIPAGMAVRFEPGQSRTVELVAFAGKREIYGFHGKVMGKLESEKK
T1 sequence (P17088 whole entry): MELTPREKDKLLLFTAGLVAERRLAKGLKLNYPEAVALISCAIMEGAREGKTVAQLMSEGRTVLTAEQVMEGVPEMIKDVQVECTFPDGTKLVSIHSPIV
T1 sequence (P17086 whole entry): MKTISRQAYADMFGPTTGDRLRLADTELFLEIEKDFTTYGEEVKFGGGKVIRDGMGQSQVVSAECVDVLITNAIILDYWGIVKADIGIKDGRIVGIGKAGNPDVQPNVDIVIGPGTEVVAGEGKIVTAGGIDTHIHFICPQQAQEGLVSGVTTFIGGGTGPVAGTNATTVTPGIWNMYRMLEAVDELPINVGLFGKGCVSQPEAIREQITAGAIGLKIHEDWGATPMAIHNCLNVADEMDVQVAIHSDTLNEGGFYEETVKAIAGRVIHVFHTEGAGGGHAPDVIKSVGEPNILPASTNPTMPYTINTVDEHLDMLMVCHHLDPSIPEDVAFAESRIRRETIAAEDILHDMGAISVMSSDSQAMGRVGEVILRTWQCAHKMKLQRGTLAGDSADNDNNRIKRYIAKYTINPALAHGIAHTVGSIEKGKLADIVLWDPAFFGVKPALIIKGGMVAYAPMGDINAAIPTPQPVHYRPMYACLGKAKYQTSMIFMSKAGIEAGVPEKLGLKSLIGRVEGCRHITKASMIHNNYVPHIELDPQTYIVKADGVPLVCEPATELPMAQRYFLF
Sequence of UreG (Q09066 whole entry): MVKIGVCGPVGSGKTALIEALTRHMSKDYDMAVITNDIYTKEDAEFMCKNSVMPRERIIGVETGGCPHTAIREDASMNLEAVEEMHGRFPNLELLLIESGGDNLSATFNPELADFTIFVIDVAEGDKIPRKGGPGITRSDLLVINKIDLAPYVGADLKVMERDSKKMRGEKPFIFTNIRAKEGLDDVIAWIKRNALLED

Nc1nc2c(ncn2[C@@H]2O[C@H](COP(=O)(O)OP(=O)(O)OP(=O)(O)O)[C@@H](O)[C@H]2O)c(=O)[nH]1 [GTP, guanosine-5'-triphosphate, reference compound]
Kd (UreG): ~65 µM
fluorescence intensity (a.u.) (UreG; log(ligand[μM]) 0): 3320 a.u.
fluorescence intensity (a.u.) (UreG; log(ligand[μM]) 0.30103): 3210 a.u.
fluorescence intensity (a.u.) (UreG; log(ligand[μM]) 0.60206): 2994.67 a.u.
fluorescence intensity (a.u.) (UreG; log(ligand[μM]) 0.90309): 2943.33 a.u.
fluorescence intensity (a.u.) (UreG; log(ligand[μM]) 1.20412): 2860.67 a.u.
fluorescence intensity (a.u.) (UreG; log(ligand[μM]) 1.50515): 2655 a.u.
fluorescence intensity (a.u.) (UreG; log(ligand[μM]) 1.80618): 2320.33 a.u.
fluorescence intensity (a.u.) (UreG; log(ligand[μM]) 2.10721): 1866.33 a.u.
fluorescence intensity (a.u.) (UreG; log(ligand[μM]) -1.30103): 3394.33 a.u.

[Ni+2] [Ni]
Normalized urease activity(%) (H. pylori urease [1]; supplement 0.05 (head prints CBS(μM )), starting sample 20% activity): 19.0%
Normalized urease activity(%) (H. pylori urease [1]; supplement 0.1 (head prints CBS(μM ))): 18.6%
Normalized urease activity(%) (H. pylori urease [1]; supplement 0.2 (head prints CBS(μM ))): 18.3%
Normalized urease activity(%) (H. pylori urease [1]; supplement 0.4 (head prints CBS(μM ))): 17.5%
restoration of urease activity (H. pylori urease [1]; supplemented to CBS-treated bacterial cell lysate): failed to restore the urease activity completely

CC(=O)NO [AHA, acetohydroxamic acid]
Normalized urease activity(%) (urease [2]; log(AHA[μM]) 1.79588): 92.5521%
Normalized urease activity(%) (urease [2]; log(AHA[μM]) 2.09691): 93.0486%
Normalized urease activity(%) (urease [2]; log(AHA[μM]) 2.39794): 89.0764%
Normalized urease activity(%) (urease [2]; log(AHA[μM]) 2.69897): 86.0973%
Normalized urease activity(%) (urease [2]; log(AHA[μM]) 3): 82.6216%
Normalized urease activity(%) (urease [2]; log(AHA[μM]) 3.30103): 72.6911%
Normalized urease activity(%) (urease [2]; log(AHA[μM]) 3.60206): 51.3406%
Normalized urease activity(%) (urease [2]; log(AHA[μM]) 3.90309): 15.0943%
Normalized urease activity(%) (urease [2]; log(AHA[μM]) 4.20412): 3.674%
Normalized urease activity(%) (urease [2]; log(AHA[μM]) 4.50515): 1.688%
Ammonia in medium [3]: 2.273 mM
Normalized cell survival (%) [3]: 14.4144%
Normalized urease activity(%) (urease [4]; log(AHA[μM]) 1.39794): 85.3556%
Normalized urease activity(%) (urease [4]; log(AHA[μM]) 2.09691): 97.9079%
Normalized urease activity(%) (urease [4]; log(AHA[μM]) 2.39794): 94.4212%
Normalized urease activity(%) (urease [4]; log(AHA[μM]) 2.69897): 97.2106%
Normalized urease activity(%) (urease [4]; log(AHA[μM]) 3): 105.579%
Normalized urease activity(%) (urease [4]; log(AHA[μM]) 3.30103): 100%
Normalized urease activity(%) (urease [4]; log(AHA[μM]) 3.60206): 74.198%
Normalized urease activity(%) (urease [4]; log(AHA[μM]) 3.90309): 38.6332%
Normalized urease activity(%) (urease [4]; log(AHA[μM]) 4.20412): 16.318%
Normalized urease activity(%) (urease [4]; log(AHA[μM]) 4.50515): 9.344%
Normalized urease activity(%) (urease [5]; log(AHA[μM]) 1.29073): 83.9311%
Normalized urease activity(%) (urease [5]; log(AHA[μM]) 1.59176): 78.3381%
Normalized urease activity(%) (urease [5]; log(AHA[μM]) 1.89279): 61.9141%
Normalized urease activity(%) (urease [5]; log(AHA[μM]) 2.19382): 45.934%
Normalized urease activity(%) (urease [5]; log(AHA[μM]) 2.49485): 31.2855%
Normalized urease activity(%) (urease [5]; log(AHA[μM]) 2.79588): 25.6037%
Normalized urease activity(%) (urease [5]; log(AHA[μM]) 3.09691): 17.6136%
Normalized urease activity(%) (urease [5]; log(AHA[μM]) 3.39794): 16.1932%
Normalized urease activity(%) (urease [5]; log(AHA[μM]) 3.69897): 12.3757%
Normalized urease activity(%) (urease [5]; log(AHA[μM]) 4): 7.315%
Normalized urease activity(%) (urease [6]; log(AHA[μM]) 1.79588): 92.1939%
Normalized urease activity(%) (urease [6]; log(AHA[μM]) 2.09691): 91.7831%
Normalized urease activity(%) (urease [6]; log(AHA[μM]) 2.39794): 89.7288%
Normalized urease activity(%) (urease [6]; log(AHA[μM]) 2.69897): 88.9071%
Normalized urease activity(%) (urease [6]; log(AHA[μM]) 3): 90.1397%
Normalized urease activity(%) (urease [6]; log(AHA[μM]) 3.30103): 80.6902%
Normalized urease activity(%) (urease [6]; log(AHA[μM]) 3.60206): 55.6286%
Normalized urease activity(%) (urease [6]; log(AHA[μM]) 3.90309): 27.691%
Normalized urease activity(%) (urease [6]; log(AHA[μM]) 4.20412): 14.1331%
Normalized urease activity(%) (urease [6]; log(AHA[μM]) 4.50515): 10.8463%
Normalized urease activity(%) (urease [7]; log(AHA[μM]) 1.79588): 78.186%
Normalized urease activity(%) (urease [7]; log(AHA[μM]) 2.09691): 95.4076%
Normalized urease activity(%) (urease [7]; log(AHA[μM]) 2.39794): 91.1022%
Normalized urease activity(%) (urease [7]; log(AHA[μM]) 2.69897): 92.2503%
Normalized urease activity(%) (urease [7]; log(AHA[μM]) 3): 91.3892%
Normalized urease activity(%) (urease [7]; log(AHA[μM]) 3.30103): 81.0563%
Normalized urease activity(%) (urease [7]; log(AHA[μM]) 3.60206): 50.3444%
Normalized urease activity(%) (urease [7]; log(AHA[μM]) 3.90309): 18.7715%
Normalized urease activity(%) (urease [7]; log(AHA[μM]) 4.20412): 5.568%
Normalized urease activity(%) (urease [7]; log(AHA[μM]) 4.50515): 3.846%
Normalized cell survival (%) [8]: 40.5% ± 8.2% and 40.5405%
IC50 (H. pylori urease [9]; AHA incubated with extracted urease, ± SD): 1.32 ± 0.291 mM
Normalized urease activity(%) (AHA) (H. pylori urease [9]; AHA log[μM] 1.89279): 109.4% and 109.395%
Normalized urease activity(%) (AHA) (H. pylori urease [9]; AHA log[μM] 2.19382): 96.0% and 96.0334%
Normalized urease activity(%) (AHA) (H. pylori urease [9]; AHA log[μM] 2.49485): 91.9% and 91.858%
Normalized urease activity(%) (AHA) (H. pylori urease [9]; AHA log[μM] 2.79588): 93.3% and 93.3194%
Normalized urease activity(%) (AHA) (H. pylori urease [9]; AHA log[μM] 3.09691): 51.1% and 51.1482%
Normalized urease activity(%) (AHA) (H. pylori urease [9]; AHA log[μM] 3.39794): 20.5% and 20.4593%
Normalized urease activity(%) (AHA) (H. pylori urease [9]; AHA log[μM] 3.69897): 2.7% and 2.714%
Normalized urease activity(%) (AHA) (H. pylori urease [9]; AHA log[μM] 4): 1.3% and 1.253%
Normalized urease activity(%) (AHA) (H. pylori urease [9]; AHA log[μM] 4.30103): 1.3% and 1.253%
Normalized urease activity(%) (urease [10]; log(AHA[μM]) 1.79588): 82.0618%
Normalized urease activity(%) (urease [10]; log(AHA[μM]) 2.09691): 76.8393%
Normalized urease activity(%) (urease [10]; log(AHA[μM]) 2.39794): 67.9837%
Normalized urease activity(%) (urease [10]; log(AHA[μM]) 2.69897): 58.901%
Normalized urease activity(%) (urease [10]; log(AHA[μM]) 3): 52.7702%
Normalized urease activity(%) (urease [10]; log(AHA[μM]) 3.30103): 45.277%
Normalized urease activity(%) (urease [10]; log(AHA[μM]) 3.60206): 27.5659%
Normalized urease activity(%) (urease [10]; log(AHA[μM]) 3.90309): 11.6712%
Normalized urease activity(%) (urease [10]; log(AHA[μM]) 4.20412): 3.951%
Normalized urease activity(%) (urease [10]; log(AHA[μM]) 4.50515): 2.589%
